# Assay results: patent US20060189565A1, “Pharmaceutical compositions of ganciclovir” (priority 2002, published 2006)
# Experiments:
# [1] = test system: herpes simplex virus (HSV); details: human clinical studies; cited from earlier work
# [2] = Accelerated stability testing of packaged final product; type: physicochemical; details: 40° C., 75% RH
# Experimental: Accelerated stability testing was conducted by varying the water content of ganciclovir between 1.99% w/w and 2.54% w/w. The packages of final product were stored at 40° C. and 75% RH for a period of three months. At predetermined intervals, some of the packages were opened and analyzed to determine the amount of active ingredient, related impurities (RS), and water content present in the formulation.
# cytomegalovirus (CMV) = details: human clinical studies; cited from earlier work
# [3] = Moisture uptake by ganciclovir in an open Petri dish; type: physicochemical; details: ganciclovir containing 1.99% water, 25° C., 60% RH
# Experimental: Different formulations containing variable percentages of water were subjected to stability and moisture uptake studies. For example, ganciclovir containing 1.99% water content was subjected to moisture uptake at 25° C. and 60% relative humidity (RH) in an open Petri dish and the increase in weight was monitored.
compound,measurement,setting,value
"Nc1nc2c(ncn2COC(CO)CO)c(=O)[nH]1 [ganciclovir, 9-(1,3-dihydroxy-2-propoxymethyl) guanine]",activity against herpes simplex virus (HSV),[1],active
same,initial purity retained,[2]; after one month,at least 97%
same,purity lost,[2]; after one month,less than about three percent
same,initial purity retained,[2]; after three months,at least 87%
same,purity lost,[2]; after three months,less than about five percent
same,initial purity retained,[2]; after two months,at least 96%
same,purity lost,[2]; after two months,less than about four percent
same,activity against cytomegalovirus (CMV),cytomegalovirus (CMV),active
same,Increase in moisture during storage,[3],no appreciable increase in moisture during storage
same,Moisture gain,[3]; 2.0 hrs,0.12 % w/w
same,Moisture gain,[3]; 4.0 hrs,0.38 % w/w
same,Moisture gain,[3]; 8.0 hrs,0.46 % w/w
same,Moisture gain,[3]; 48.0 hrs,0.49 % w/w
same,Moisture gain,[3]; 168.0 hrs (1 week),0.50 % w/w
